Assay results from publication PMC8619046, “ABCB1 and ABCG2 Control Brain Accumulation and Intestinal Disposition of the Novel ROS1/TRK/ALK Inhibitor Repotrectinib, While OATP1A/1B, ABCG2, and CYP3A Limit Its Oral Availability” (Pharmaceutics, 2021).
“And” between values parts separate entries of the source, which are not always exact repeats. Equal values may be shown once. Read-outs that look alike come from different tables or passages of the source.

Experiment: 8-h pilot oral plasma pharmacokinetics and tissue distribution, female wild-type, Abcb1a/1b;Abcg2−/− and Oatp1a/1b−/− mice
Format: in vivo
Details: 10 mg/kg oral; for Fold change (SIC (% of dose)-to-plasma ratio) / Fold change SIC (% of dose) / Fold increase Cbrain / Fold increase Cliver / Fold increase ratio (liver-to-plasma) / Fold change AUC0-8h / Fold increase ratio (brain-to-plasma): vs wild-type; for Kp at 8 h / concentration at 8 h / Cmax / AUC(0-t): female, po; for AUC(0-t): read-out: AUC0-8h
Excerpt: Mice with similar average ages (and body weights) were randomly allocated in experimental groups as far as possible. Mice were maintained in a temperature-controlled and specific pathogen-free environment with a 12-h light and 12-h dark cycle and they received a standard diet (Transbreed, SDS Diets, Technilab-BMI, Someren, The Netherlands) and acidified water ad libitum. […] Given the objective main readout (repotrectinib plasma and tissue concentrations as measured by LC-MS/MS), no blinding method was applied.
Repotrectinib was dissolved in dimethyl sulfoxide (DMSO) at a concentration of 50 mg/mL. This stock solution was first diluted 3-fold with ethanol/polysorbate 80 (1/1; v/v), followed by further dilution with a 10 mM hydrochloric acid solution, yielding a dosing solution of 1 mg/mL, freshly prepared on the day of experiment. Final concentrations of the solvents in the administration solution were: 2%, 2%, 2%, and 94% (all v/v) for DMSO, ethanol, polysorbate 80, and 10 mM hydrochloric acid solution, respectively.
To minimize variation in absorption upon oral administration, mice were fasted for 2–3 h before repotrectinib (10 mg/kg body weight) was administered by gavage into the stomach at 10 µL/g body weight, with a blunt-ended needle. Tail vein serial blood samples were collected at 0.125, 0.25, 0.5, 1, 2 and 4 h using heparinized capillary tubes (Sarstedt, Nümbrecht, Germany) for the 8-h experiments. For the 4- and 2-h experiments, blood samplings were performed from the tail vein with the same schedule, but terminated at 2 and 1 h, respectively. Eight, four, or two hours after oral administration, mice were deeply anesthetized with 2–3% isoflurane, followed by cardiac puncture to collect blood in Eppendorf tubes containing heparin as an anticoagulant. Brain, liver, spleen, kidney, lung, small intestine, and testis were rapidly collected after sacrificing the mice by cervical dislocation. The small intestinal contents (SIC) were separated from small intestinal tissue (SI), which was flushed and rinsed with cold saline to remove any residual feces. Brain, liver, spleen, kidney, lung, SI, SIC, and testis were homogenized with 1, 3, 1, 2, 1, 3, 2, and 1 mL of 2% BSA (w/v), respectively. Plasma fraction was isolated from blood by centrifugation at 9000× g for 6 min at 4 °C. All samples were stored at −30 °C until analysis.
A sensitive and specific liquid chromatography-tandem mass spectrometry method using protein precipitation pre-treatment was adopted to quantify the concentration of repotrectinib in DMEM medium, plasma samples and tissue homogenates.
A non-compartmental model using the PKSolver add-in program for Microsoft Excel was adopted to calculate the pharmacokinetic parameters of repotrectinib. Oral availability was assessed by the plasma area under the curve (AUC), calculated using repotrectinib plasma concentration-time curves with the linear trapezoidal rule without extrapolating the infinity. Statistical testing was performed in Graphpad Prism7 (Graphpad Software, La Jolla, CA, USA). All data are presented as geometric means ± SD. Heteroscedastic data were log-transformed before applying statistical analysis. When differences between two groups were compared, the two-sided unpaired Student’s t test was used. One-way analysis of variance (ANOVA) was applied when multiple groups were compared, and the Bonferroni post hoc correction was used to accommodate multiple testing. Differences were considered statistically significant when P < 0.05.

[1] = Table S1, female Abcb1a/1b;Abcg2−/− mice, 8 h
[2] = Table S1, female Abcb1a/1b;Abcg2−/− mice, 8 h, 10 mg/kg
[3] = Table S1, female Oatp1a/1b−/− mice, 8 h
[4] = Table S1, female wild-type mice, 8 h
[5] = FVB, mouse, plasma, 10 mg/kg, Table S1, female Abcb1a/1b;Abcg2−/− mice, 8 h
[6] = FVB, mouse, plasma, 10 mg/kg, Table S1, female wild-type mice, 8 h

## C[C@H]1CNC(=O)c2cnn3ccc(nc23)N[C@H](C)c2cc(F)ccc2O1 [repotrectinib]
>99% FVB background, mouse, plasma, female wild-type and Abcb1a/1b;Abcg2−/− mice, 8-h pilot, read-out: time of peak plasma concentrations after dosing (converted)
  Tmax: 30 min
FVB, mouse, plasma, Table S1, median (range), female wild-type mice, 8 h, read-out: Tmax
  Tmax: 30 min
[1]
  SIC (% of dose): 0.22 ± 0.20 % of dose
  SIC (% of dose)-to-plasma ratio: 0.48 ± 0.43 ·10-3
  Fold change (SIC (% of dose)-to-plasma ratio): 0.054
  Fold change SIC (% of dose): 0.11
  Fold increase Cbrain: 19.5
  Fold increase Cliver: 1.50
  Fold increase ratio (liver-to-plasma): 0.79
[2]
  Fold change AUC0-8h: 1.42 and 1.4
  Fold increase ratio (brain-to-plasma): 9.46 and 9.5
[3]
  SIC (% of dose): 5.59 ± 3.32 % of dose
  SIC (% of dose)-to-plasma ratio: 14.5 ± 8.9 ·10-3
  Fold change (SIC (% of dose)-to-plasma ratio): 1.63
  Fold change SIC (% of dose): 2.69
  Fold increase Cbrain: 3.64
  Fold increase Cliver: 1.43
  Fold increase ratio (brain-to-plasma): 1.85
  Fold increase ratio (liver-to-plasma): 0.86
Table S1, female Oatp1a/1b−/− mice, 8 h, 10 mg/kg
  Fold change AUC0-8h: 1.51 and 1.5
[4]
  SIC (% of dose): 2.08 ± 1.35 % of dose
  SIC (% of dose)-to-plasma ratio: 8.87 ± 1.83 ·10-3
  Fold change (SIC (% of dose)-to-plasma ratio): 1.00
  Fold change AUC0-8h: 1.00
  Fold change SIC (% of dose): 1.00
  Fold increase Cbrain: 1.00
  Fold increase Cliver: 1.00
  Fold increase ratio (brain-to-plasma): 1.00
  Fold increase ratio (liver-to-plasma): 1.00
Table S1, median (range), female Abcb1a/1b;Abcg2−/− mice, 8 h
  Tmax: 0.5 (0 .5-1) h
Table S1, median (range), female Oatp1a/1b−/− mice, 8 h
  Tmax: 0.5 (0.25-1) h
FVB, mouse, brain, 10 mg/kg, Table S1, female Abcb1a/1b;Abcg2−/− mice, 8 h, read-out: Brain-to-plasma ratio
  Kp at 8 h: 2.46 ± 0.31
FVB, mouse, brain, 10 mg/kg, Table S1, female Abcb1a/1b;Abcg2−/− mice, 8 h, read-out: Cbrain
  concentration at 8 h: 1000 ± 320 ng/g
FVB, mouse, brain, 10 mg/kg, Table S1, female Oatp1a/1b−/− mice, 8 h, read-out: Brain-to-plasma ratio
  Kp at 8 h: 0.48 ± 0.12
FVB, mouse, brain, 10 mg/kg, Table S1, female Oatp1a/1b−/− mice, 8 h, read-out: Cbrain
  concentration at 8 h: 186 ± 51.4 ng/g
FVB, mouse, brain, 10 mg/kg, Table S1, female wild-type mice, 8 h, read-out: Brain-to-plasma ratio
  Kp at 8 h: 0.26 ± 0.12
FVB, mouse, brain, 10 mg/kg, Table S1, female wild-type mice, 8 h, read-out: Cbrain
  concentration at 8 h: 51.2 ± 17.8 ng/g
FVB, mouse, liver, 10 mg/kg, Table S1, female Abcb1a/1b;Abcg2−/− mice, 8 h, read-out: Cliver
  concentration at 8 h: 1780 ± 770 ng/mL
FVB, mouse, liver, 10 mg/kg, Table S1, female Abcb1a/1b;Abcg2−/− mice, 8 h, read-out: Liver-to-plasma ratio
  Kp at 8 h: 4.21 ± 0.35
FVB, mouse, liver, 10 mg/kg, Table S1, female Oatp1a/1b−/− mice, 8 h, read-out: Cliver
  concentration at 8 h: 1750 ± 450 ng/mL
FVB, mouse, liver, 10 mg/kg, Table S1, female Oatp1a/1b−/− mice, 8 h, read-out: Liver-to-plasma ratio
  Kp at 8 h: 4.59 ± 1.28
FVB, mouse, liver, 10 mg/kg, Table S1, female wild-type mice, 8 h, read-out: Cliver
  concentration at 8 h: 1220 ± 650 ng/mL
FVB, mouse, liver, 10 mg/kg, Table S1, female wild-type mice, 8 h, read-out: Liver-to-plasma ratio
  Kp at 8 h: 5.36 ± 0.54
[5]
  Cmax: 6190 ± 440 ng/mL
  AUC(0-t): 23100 ± 2110 ng·h/mL
FVB, mouse, plasma, 10 mg/kg, Table S1, female Oatp1a/1b−/− mice, 8 h
  AUC(0-t): 24600 ± 3270 ng·h/mL
[6]
  Cmax: 4800 ± 1780 ng/mL
  AUC(0-t): 16300 ± 6350 ng·h/mL
Oatp1a/1b−/−, >99% FVB background, mouse, plasma, 10 mg/kg, Table S1, female Oatp1a/1b−/− mice, 8 h
  Cmax: 6150 ± 800 ng/mL
